TGI and GI50 data for 31 molecules are collected here from PubChem BioAssay (NCI).

Assay in all cases: inhibition of tumour cell growth, NCI panel, 48 h
Assay [1] relates to CCRF-CEM leukemia.
Assay [2] concerns SF-295 CNS.
Assay [3] concerns NCI-H226 lung.
Assay [4] concerns NCI-H23 lung.
The test system of assay [5] is OVCAR-8 ovarian.
The test system of assay [6] is NCI-H522 lung.
Assay [7] has as its system RPMI-8226 leukemia.
The subject of assay [8] is HOP-62 NSCLC.
Assay [9] has as its system MALME-3M melanoma.

“And” between values parts separate entries of the source, which are not always exact repeats. Equal entries are not always repeated.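 In this assay, cells in 96-well plates receive the compound at five concentrations for 48 hours. Endpoints are linearly interpolated between the surrounding concentrations. Here, GI50 denotes the concentration required for 50% inhibition of growth. TGI: total growth inhibition.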 A value given as a limit tells only on which side of the number the result lay.

In the case of `COc1cccc(C(=O)N2CCc3ccccc32)c1OC`, the TGI in assay [1], in [2], in [3], in assay [4], in assay [5] and in assay [6] was > 100 µM each time. For the same molecule, the TGI in assay [7], in assay [8] and in assay [9] was > 100 µM throughout.

For `COc1c(C(=O)O)oc2c(OC)cccc12`, the TGI in [1], in [2], in assay [3], in assay [4], in [5] and in [6] was > 100 µM throughout. Also, the TGI in assay [7], in assay [8] and in assay [9] was > 100 µM in each case.

For the molecule `COc1ccc2c(c1OC)C1=C(C2=O)c2cc3c(cc2CCN1)OCO3`, the TGI in [1] was > 100 µM; in assay [2] it was > 100 µM; in assay [3], 9.58 µM; in [4], > 100 µM; in assay [5] it was > 100 µM; in assay [7], 59.3 µM. The TGI in [8] and in assay [9] was > 100 µM throughout.

Regarding `Cc1c(C(=O)c2ccccc2C(=O)O)c2ccccc2n1C`, the TGI in [1], in [2], in assay [3], in assay [4], in [5] and in assay [7] was > 100 µM in each case. Besides, the TGI in assay [8] and in assay [9] was > 100 µM in each case.

In the case of `CC1(C)OC(=O)C=C([O-])O1.CC1(C)OC(=O)C=C([O-])O1.O=S(=O)([O-])c1ccc([O-])c2ncccc12.O=S(=O)([O-])c1ccc([O-])c2ncccc12.[Ti+4]`, the GI50 in [1] was 69.8 µM; in assay [2], > 100 µM; in assay [3] it was > 100 µM; in [4] it was > 100 µM; in assay [5], 83.4 µM; in assay [6], 52.4 µM. In addition, the GI50 in assay [7] was > 100 µM; in assay [8] it was 26.3 µM; in assay [9], > 100 µM. The TGI in assay [1], in assay [2], in [3], in [4], in [5] and in [6] was > 100 µM each time. Also, the TGI is > 100 µM in assay [7], 73.1 µM in [8] and > 100 µM in assay [9].

Take `CN1c2ccccc2N(C)C2C1N(C)c1ccccc1N2C` (centres undefined): the TGI in assay [1] was 9.73 µM; in [2] it was > 100 µM; in assay [3], 83.2 µM; in [4] it was 74.7 µM; in assay [5] it was > 100 µM; in assay [6], 26 µM. For the same molecule, the TGI was 62.9 µM in [7], > 100 µM in [8] and 76.4 µM in [9].

Take `N=c1nnc(=O)c2c(s1)-n1ncc(C(=O)O)c1NN2`: the TGI in assay [2], in assay [4], in [5], in assay [6], in assay [7] and in [8] was > 100 µM in each case. The TGI in assay [9] is > 100 µM.

As for `CO/C1=C\C(C)=C\C(C)C(O)C(C)C/C(C)=C/C=C/C(OC)C(C(C)C(O)C(C)C2(O)CC(O)C(C)C(C(C)C)O2)OC1=O` (centres undefined), the TGI in assay [2] is 0.0215 µM and 0.0198 µM; in assay [4], 15 µM; in [5] it was 10.4 µM; in assay [8], 0.000847 µM; in [9] it was 0.0914 µM and 0.0629 µM. In addition, in assay [9], the GI50 was 0.0237 µM.

Take `CC(=O)O[C@H]1CC[C@@]2(C)C(=CC[C@H]3C4=CC=C(C(C)=O)[C@@]4(C)CCC32)C1` (some centres undefined): the TGI in assay [1] is > 100 µM; in [2], > 100 µM; in [3] it was 71.4 µM; in assay [5], 66.3 µM; in assay [6], 46.1 µM; in [7], > 100 µM. The TGI in assay [8] and in assay [9] was > 100 µM throughout.

Consider `CCNC(=O)C#CC(=O)NCC`, for which the GI50 in assay [1] is > 10 µM; in assay [2] it was > 10 µM; in assay [3] it was > 100 µM; in assay [4] it was > 10 µM; in [5], > 10 µM; in [7] it was > 10 µM. Moreover, the GI50 in assay [9] was > 100 µM. The TGI was > 72.3 µM in assay [1]; > 100 µM in [2]; > 100 µM in [3]; > 100 µM in assay [4]; > 100 µM in [5]; > 100 µM in assay [6]. Besides, the TGI in assay [7] was > 62.8 µM; in assay [8], > 100 µM; in [9] it was > 100 µM.

In the case of `CN(CN1C(=O)C2Cc3ccccc3CN2C1=O)c1ccccn1` (centres undefined), the TGI in [1], in [2], in [3], in [4], in assay [5] and in assay [6] was > 100 µM in each case. The TGI in [7], in assay [8] and in [9] was > 100 µM throughout.

Take `CN(C)C(N)=NC#N`: the TGI in [2], in assay [3], in assay [4], in assay [5], in assay [6] and in assay [7] was > 100 µM in each case. Besides, the TGI in [8] and in assay [9] was > 100 µM each time.

In the case of `COc1ccc(C(N)=O)cc1N=NN(C)C`, the TGI in assay [1], in assay [2], in assay [3], in assay [4], in assay [5] and in assay [6] was > 100 µM each time. Further, the TGI in [7], in [8] and in assay [9] was > 100 µM throughout.

As to `Cc1c(C(=O)NCCO)[n+](=O)c2cc(Cl)ccc2n1[O-]`, the TGI in assay [1], in assay [2], in assay [4], in [5], in assay [7] and in [8] was > 100 µM in each case. Further, the TGI in assay [9] is > 100 µM.

Turning to `COC1OC(CO)C(O)C(O)C1Br` (centres undefined), the TGI in assay [1], in [2], in assay [4], in assay [5], in [6] and in assay [7] was > 100 µM each time. For the same molecule, the TGI in assay [8] and in [9] was > 100 µM each time.

Turning to `COc1cccc(NC(=O)CC(=O)N2N=C(N(CCC#N)c3ccccc3C)CC2c2ccccc2)c1` (centres undefined), the TGI in [1], in assay [2], in [3], in assay [4], in assay [5] and in assay [6] was > 100 µM throughout. For the same molecule, the TGI in assay [7], in assay [8] and in assay [9] was > 100 µM in each case.

Consider `Cc1nc2c(n1C(C)(C)C)C(=O)c1ccccc1C2=O`, for which the TGI in [1], in assay [2], in assay [3], in [4], in assay [5] and in assay [6] was > 100 µM in each case. Further, the TGI in [8] and in assay [9] was > 100 µM in each case.

`C(CCC[Te][Te]CCCCCCOC1CCCCO1)CCOC1CCCCO1` (centres undefined): the TGI in assay [1] amounted to 41.4 µM; in assay [2] it was 32.1 µM; in assay [4], 31.1 µM; in assay [5], 33.9 µM; in assay [8] it was 33.7 µM; in assay [9] it was 20.5 µM.

With `Cc1ccc(S(=O)(=O)NC(=O)NC23CC4CC(CC(F)(C4)C2)C3)cc1`, the TGI in assay [1], in [4], in [5], in assay [6], in assay [7] and in assay [8] was > 100 µM in each case. Also, the TGI in assay [9] was > 100 µM.

With `O=C(Nc1nc2ccccc2n1Cc1ccccc1)NC12CC3CC(CC(C3)C1)C2`, the TGI in [1] was > 100 µM; in [2], 37 µM; in assay [3], > 100 µM; in [4], > 100 µM; in [5], > 100 µM; in [6], > 100 µM. The TGI in assay [7], in assay [8] and in assay [9] was > 100 µM throughout.

As for `COCC(=O)CP(=O)(OC)OC`, the TGI in [1], in assay [2], in [4], in assay [5], in assay [6] and in assay [7] was > 100 µM throughout. Also, the TGI in assay [8] and in assay [9] was > 100 µM each time.

As for `O=c1cc2ccccc2nn1Cc1ccccc1Cl`, the TGI in assay [1], in [2], in [3], in assay [4], in assay [5] and in assay [7] was > 100 µM in each case. Further, the TGI in assay [8] and in assay [9] was > 100 µM in each case.

As to `Cn1c(=O)nc2n(-c3cccc(F)c3)c3ccccc3nc-2c1=O`, the TGI was 56.7 µM in assay [1]; > 100 µM in assay [2]; > 100 µM in assay [3]; 35.2 µM in assay [4]; 77.1 µM in assay [5]; 38.1 µM in [6]. For the same molecule, the TGI in [7] was 72.6 µM; in assay [8], > 100 µM; in assay [9] it was 28.2 µM.

Regarding `COc1cc2noc(-c3ccccc3)c2cc1OC`, the TGI was > 100 µM in assay [1]; 38.6 µM in assay [2]; > 100 µM in assay [3]; > 100 µM in [5]; > 100 µM in assay [6]; 56.7 µM in assay [7]. Also, the TGI in [8] and in assay [9] was > 100 µM each time.

Consider `CCC(=O)C(C)C1=Nc2nnc(CCCCCCCc3nnc4n3C(=O)C(C(C)C(=O)CC)=N4)n2C1=O` (centres undefined), for which the TGI in assay [1], in assay [2], in assay [3], in assay [4], in assay [5] and in [6] was > 100 µM each time. Moreover, the TGI in [7], in [8] and in [9] was > 100 µM throughout.

Regarding `CC(=O)OC1CC2C(C)(C)C(=O)C=C[C@]2(C)C2CCC3(C)C(c4ccoc4)C(=O)[C@H]4O[C@]43[C@]12C` (some centres undefined), the TGI in [1] worked out at 62.3 µM; in assay [3], 50.4 µM; in assay [4], 50.4 µM; in [5], 49.9 µM; in assay [6] it was 36.9 µM; in [7], 47.3 µM. Besides, the TGI in assay [8] is 42.7 µM; in assay [9], 32.1 µM.

With `CC(=O)OCCOCNC(=S)N/N=C(\C)c1cnc2ccccc2n1`, the TGI in assay [1] was 90.2 µM; in assay [2], > 100 µM; in assay [3], > 100 µM; in [4], > 100 µM; in assay [5], > 100 µM; in assay [6], 76.7 µM. In addition, the TGI in [7], in assay [8] and in [9] was > 100 µM throughout.

On to `CCCCCC(=O)c1ccc2[nH]c3c(C)cc([N+](=O)[O-])c(C)c3c2c1`, for which the TGI in assay [1], in assay [2], in [3], in [4], in assay [5] and in [6] was > 100 µM each time. In addition, the TGI in assay [7], in assay [8] and in [9] was > 100 µM in each case.

With `CN1NC2(CCCCC2)ON=C1c1ccccc1`, the TGI in [1], in assay [2], in assay [3], in assay [4], in assay [5] and in assay [6] was > 100 µM throughout. The TGI in [8] and in [9] was > 100 µM throughout.

As to `C1CSCCCSCCSCCCSC1`, the TGI in assay [2], in [3], in assay [4], in assay [5], in [6] and in assay [7] was > 100 µM throughout. For the same molecule, the TGI in assay [8] was > 100 µM.

In the case of `NC(=O)N/N=C/C(/C=N/NC(N)=O)[N+](=O)[O-]`, the TGI in assay [1], in assay [2], in assay [3], in [4], in assay [6] and in assay [7] was > 100 µM throughout. In addition, the TGI in assay [8] and in assay [9] was > 100 µM in each case.
